Data on 20 compounds can be found in US10836769B2, “Substituted pyrrolizine compounds and uses thereof” (Gilead Sciences, Inc., priority 2018, dated 2020).

The test system of one data set is HBV. The data set can be described thus: HBV DNA Quantification Assay. The format is cell-based. As for the experimental part: A HepG2 cell line overexpressing the HBV virus attachment receptor sodium-taurocholate cotransporting polypeptide (NTCP) was grown to confluency in DMEM growth medium, Dulbecco's Modified Eagle Medium without sodium pyruvate (Life Technologies, Rockville, Md.) supplemented with 10% FBS (Thermo Scientific, Waltham, Md.), 1% penicillin/streptomycin (Life Technologies, Rockville, Md.) and 2 mM L-glutamine (Life Technologies, Rockville, Md.) in T175 flasks. Cells were infected with HBV AD38 viral particles (Texcell, Frederick, USA) at 4000 genome equivalents per cell. After allowing viral infection to take place for 4 days, the infected cells were harvested from the flasks by trypsinization, washed twice with OptiMEM (Life Technologies, Rockville, Md.) and re-suspended in DMEM containing 2% FBS and 1% DMSO at a density of 0.25E6 cells/ml. Infected cells were seeded on 384 well collagen coated plates (Greiner, Austria) at a density of 20,000 cells/well containing serially diluted compounds of the present disclosure or DMSO (0.5%) in a final volume of 80 μl. The assay plates were incubated for a period of 5 days and the antiviral activity of the test compounds were assayed by detecting the presence of HBV DNA in the culture supernatant using the QuantiGene™ 2.0 nucleic acid quantification kit (Affymetrix, Santa Clara, Calif.).
The culture supernatant was harvested and treated with lysis buffer containing Proteinase K (Affymetrix, Santa Clara, Calif.). The supernatant was incubated with HBV viral DNA specific probes (Affymetrix, Santa Clara, Calif.) for 30 minutes at 55° C. This was followed by addition of 0.2M NaOH for 30 minutes at room temperature to denature the DNA, followed by addition of Neutralization buffer (Affymetrix, Santa Clara, Calif.). The resulting lysed and neutralized supernatant was then added to QuantiGene™ 2.0 384 well plates coated with capture oligonucleotides and incubated overnight at 55° C. The HBV specific probe set consists of Capture Extender oligonucleotides (CE's) and blocking probes. Following the overnight incubation, the wells were incubated for one hour sequentially with a Pre-Amplifier, Amplifier and Labeled probes conjugated to alkaline phosphatase with a wash step between incubations. After the final wash step, the alkaline phosphatase substrate (Luminol APS5) was added and the resulting luminescence signal was read in an EnVision Multilabel Plate Reader (PerkinElmer, Santa Clara, Calif.). The EC50 values were calculated from the fit of the dose-response curves to a four-parameter equation. All EC50 values represent geometric mean values of a minimum of four determinations.

The nature of the next data set: Kinetic Solubility. The format is physicochemical. The settings on record: 0.2 to 100 μM, BD Gentest Solubility Scanner. On the procedure:
The 10 mM DMSO stock solution of the test compound is serially diluted into a 96-well “DMSO stock dilution plate”. Then Pipette 2 μL from the DMSO stock dilution plate into the “Sample plate” and dilute with 198 µL of the assay media to generate the final concentrations of the test compound ranging from 0.2 to 100 μM. The “Sample plate” is run on a BD Gentest Solubility Scanner.

Setting [1] is: Hepatitis B virus, 120 h, HepG2 cell line overexpressing NTCP infected with HBV AD38 viral particles, HBV DNA in culture supernatant after 5 days, geometric mean of a minimum of four determinations, read-out: EC50.
The mark [2] stands for this setting: aqueous buffer, kinetic from dmso stock, pH = 7, read-out: Kinetic Solubility at pH = 7.
Where [3] appears, read: simulated gastric fluid, kinetic from dmso stock, pH = 1, read-out: Kinetic Solubility at pH = 1.
Where [4] appears, read: Hepatitis B virus, HepG2, 120 h.

Each structure is given as a SMILES string. Converted amounts (≈) assume the structure as drawn. Read-outs that look alike come from different tables or passages of the source.

With `Cc1c(C(=O)Nc2ccc(F)c(C(F)F)c2)c2n(c1C(=O)C(=O)NC1(c3nncs3)CC(F)(F)C1)CCC2` [Example 49, 5-(2-((3,3-difluoro-1-(1,3,4-thiadiazol-2-yl)cyclobutyl)amino)-2-oxoacetyl)-N-(3-(difluoromethyl)-4-fluorophenyl)-6-methyl-2,3-dihydro-1H-pyrrolizine-7-carboxamide], the EC50 in the data set on HBV (setting [1]) was 0.0032 µM.

Consider `Cc1c(C(=O)Nc2ccc(F)c(C#N)c2)c2n(c1C(=O)C(=O)NC1(c3nncs3)CC(F)(F)C1)CCC2` [Example 2], for which, in the data set on HBV (setting [1]), the EC50 was determined as 0.0048 µM. Moreover, the solubility (kinetic) in “Kinetic Solubility” (setting [2]) was 7.4 µM (≈ 3.91 µg/mL); in the data set “Kinetic Solubility” (setting [3]), 7.8 µM (≈ 4.12 µg/mL).

In the case of `O=C(NC1(c2nncs2)CC1)C(=O)c1c(Cl)c(C(=O)Nc2ccc(F)c(F)c2)c2n1CCC2` [Example 52, 5-(2-((1-(1,3,4-thiadiazol-2-yl)cyclopropyl)amino)-2-oxoacetyl)-6-chloro-N-(3,4-difluorophenyl)-2,3-dihydro-1H-pyrrolizine-7-carboxamide], the EC50 in the data set with HBV (setting [1]) was 0.011 µM.

For `Cc1c(C(=O)Nc2ccc(F)c(F)c2)c2n(c1C(=O)C(=O)NC1(c3nncs3)CC1)CCC2` [Example 43, 5-(2-((1-(1,3,4-thiadiazol-2-yl)cyclopropyl)amino)-2-oxoacetyl)-N-(3,4-difluorophenyl)-6-methyl-2,3-dihydro-1H-pyrrolizine-7-carboxamide], the EC50 with HBV (setting [1]) is 0.0128 µM. Moreover, the values for the kinetic solubility in “Kinetic Solubility” (setting [2]) and in “Kinetic Solubility” (setting [3]) were 72.8 µM (≈ 34.3 µg/mL) and 77.7 µM (≈ 36.6 µg/mL), respectively.

Turning to `Cc1c(C(=O)Nc2ccc(F)c(C#N)c2)c2n(c1C(=O)C(=O)NC1(c3cn(C)nn3)CC(F)(F)C1)CCC2` [Example 5, N-(3-cyano-4-fluorophenyl)-5-(2-((3,3-difluoro-1-(1-methyl-1H-1,2,3-triazol-4-yl)cyclobutyl)amino)-2-oxoacetyl)-6-methyl-2,3-dihydro-1H-pyrrolizine-7-carboxamide], the EC50 in the data set on HBV (setting [1]) worked out at 0.0436 µM. Besides, the values for the solubility (kinetic) in the data set “Kinetic Solubility” (setting [2]) and in “Kinetic Solubility” (setting [3]) were 20.7 µM (≈ 10.9 µg/mL) and 11.3 µM (≈ 5.94 µg/mL), respectively.

As for `Cc1c(C(=O)Nc2ccc(F)c(F)c2)c2n(c1C(=O)C(=O)NC1(c3c[nH]nn3)CC1)CCC2` [Example 40, 5-(2-((1-(1H-1,2,3-triazol-4-yl)cyclopropyl)amino)-2-oxoacetyl)-N-(3,4-difluorophenyl)-6-methyl-2,3-dihydro-1H-pyrrolizine-7-carboxamide], in the data set with HBV (setting [1]), the EC50 turned out to be 0.0147 µM. In addition, the solubility (kinetic) in the data set “Kinetic Solubility” (setting [2]) was 2.9 µM (≈ 1.32 µg/mL); in “Kinetic Solubility” (setting [3]) it was 4.9 µM (≈ 2.23 µg/mL).

Take `Cc1c(C(=O)Nc2ccc(F)c(C(F)F)c2)c2n(c1C(=O)C(=O)NC1(c3c[nH]nn3)CC(F)(F)C1)CCC2` [Example 37, 5-(2-((3,3-Difluoro-1-(1H-1,2,3-triazol-4-yl)cyclobutyl)amino)-2-oxoacetyl)-N-(3-(difluoromethyl)-4-fluorophenyl)-6-methyl-2,3-dihydro-1H-pyrrolizine-7-carboxamide]: the EC50 with HBV (setting [1]) amounted to 0.0036 µM. The kinetic solubility in the data set “Kinetic Solubility” (setting [2]) was 5.2 µM (≈ 2.79 µg/mL); in “Kinetic Solubility” (setting [3]), 7.1 µM (≈ 3.81 µg/mL).

In the data set on HBV (setting [4]), `Cc1c(C(=O)Nc2ccc(F)c(F)c2)c2n(c1C(=O)C(=O)NC1(c3c[nH]nn3)COC1)CCC2` [Example 36, 5-(2-((3-(1H-1,2,3-triazol-4-v)oxetan-3-yl)amino)-2-oxoacetyl)-N-(3,4-difluorophenyl)-6-methyl-2,3-dihydro-1H-pyrrolizine-7-carboxamide] came in with an EC50 of 0.0214 µM. Also, the kinetic solubility was 63 µM (≈ 29.6 µg/mL) in the data set “Kinetic Solubility” (assay media at pH 1 (composition not named), simulated gastric fluid, kinetic from dmso stock, pH = 1, read-out: Kinetic Solubility at pH = 1) and 59.9 µM (≈ 28.2 µg/mL) in the data set “Kinetic Solubility” (assay media at pH 7 (composition not named), aqueous buffer, kinetic from dmso stock, pH = 7, read-out: Kinetic Solubility at pH = 7).

Consider `Cc1c(C(=O)Nc2ccc(F)cc2)c2n(c1C(=O)C(=O)NC1(c3cn(C)nn3)CC(F)(F)C1)CCC2` [Example 10], for which the half-maximal effective concentration (EC50) in the data set with HBV (HepG2 cell line overexpressing NTCP infected with HBV AD38 viral particles, HBV DNA in culture supernatant after 5 days, geometric mean of a minimum of four determinations, read-out: EC50) amounted to 0.0332 µM. The solubility (kinetic) in the data set “Kinetic Solubility” (pH = 1, read-out: Kinetic Solubility at pH = 1) came to 1.4 µM (≈ 0.701 µg/mL); in the data set “Kinetic Solubility” (pH = 7, read-out: Kinetic Solubility at pH = 7), 52.8 µM (≈ 26.4 µg/mL).

Consider `COCc1cc(NC(=O)c2c(C)c(C(=O)C(=O)NC3(c4c[nH]nn4)CC(F)(F)C3)n3c2CCC3)ccc1F` [Example 51], for which the EC50 in the data set with HBV (setting [1]) was found to be 0.045 µM.

As to `Cc1c(C(=O)Nc2ccc(F)cc2)c2n(c1C(=O)C(=O)NC1(c3cnn[nH]3)CC(F)(F)C1)C[C@H]1C[C@@H]21` [Example 14, (1aS,6bR)-4-(2-((3,3-difluoro-1-(1H-1,2,3-triazol-4-yl)cyclobutyl)amino)-2-oxoacetyl)-N-(4-fluorophenyl)-5-methyl-1,1a,2,6b-tetrahydrocyclopropa[a]pyrrolizine-6-carboxamide], the EC50 in the data set on HBV (setting [1]) came out at 0.0026 µM. Moreover, the solubility (kinetic) was 61.4 µM (≈ 30.6 µg/mL) in the data set “Kinetic Solubility” (setting [2]) and 57.1 µM (≈ 28.5 µg/mL) in the data set “Kinetic Solubility” (setting [3]).

Consider `O=C(NC1(c2c[nH]nn2)CC(F)(F)C1)C(=O)c1c(Cl)c(C(=O)Nc2ccc(F)c(F)c2)c2n1CCC2` [Example 54, 6-chloro-5-(2-((3,3-difluoro-1-(1H-1,2,3-triazol-4-yl)cyclobutyl)amino)-2-oxoacetyl)-N-(3,4-difluorophenyl)-2,3-dihydro-1H-pyrrolizine-7-carboxamide], for which the EC50 in the data set on HBV (setting [1]) was 0.0016 µM.

For the compound `Cc1c(C(=O)Nc2ccc(F)c(F)c2)c2n(c1C(=O)C(=O)N[C@](C)(C(N)=O)C(F)(F)F)CCC2` [Example 47, (R)-5-(2-((3-amino-1,1,1-trifluoro-2-methyl-3-oxopropan-2-yl)amino)-2-oxoacetyl)-N-(3,4-difluorophenyl)-6-methyl-2,3-dihydro-1H-pyrrolizine-7-carboxamide], the EC50 in the data set on HBV (setting [1]) was 0.0541 µM.

Turning to `O=C(NC1(c2c[nH]nn2)CC1)C(=O)c1c(Cl)c(C(=O)Nc2ccc(F)c(C(F)F)c2)c2n1CCC2` [Example 56], the EC50 with HBV (setting [1]) was determined as 0.0302 µM.

As for `COCc1cc(NC(=O)c2c(C)c(C(=O)C(=O)NC3(c4nncs4)CC(F)(F)C3)n3c2CCC3)ccc1F` [Example 50], the EC50 with HBV (setting [1]) is 0.0334 µM.

`Cc1c(C(=O)Nc2ccc(F)cc2)c2n(c1C(=O)C(=O)NC1(c3cnnn3C)CC(F)(F)C1)CCC2` [Example 7, 5-(2-((3,3-difluoro-1-(1-methyl-1H-1,2,3-triazol-5-yl)cyclobutyl)amino)-2-oxoacetyl)-N-(4-fluorophenyl)-6-methyl-2,3-dihydro-1H-pyrrolizine-7-carboxamide]: the EC50 with HBV (setting [1]) turned out to be 0.0179 µM.

With `Cc1c(C(=O)Nc2ccc(F)c(F)c2)c2n(c1C(=O)C(=O)NC1(c3cn(C[Si](C)(C)C)nn3)CC1)CCC2` [Example 12], the response in the data set on HBV (setting [4]) was half-maximal at 0.0936 µM (EC50).

For the compound `Cc1c(C(=O)Nc2ccc(F)c(F)c2)c2n(c1C(=O)C(=O)N[C@@](C)(C(N)=O)C(F)(F)F)CCC2` [Example 48, (S)-5-(2-((3-amino-1,1,1-trifluoro-2-methyl-3-oxopropan-2-yl)amino)-2-oxoacetyl)-N-(3,4-difluorophenyl)-6-methyl-2,3-dihydro-1H-pyrrolizine-7-carboxamide], in the data set with HBV (setting [1]), the EC50 was 0.0639 µM.

As to `O=C(NC1(c2c[nH]nn2)CC(F)(F)C1)C(=O)c1c(Cl)c(C(=O)Nc2ccc(F)c(C(F)F)c2)c2n1CCC2` [Example 55, 6-chloro-5-(2-((3,3-difluoro-1-(1H-1,2,3-triazol-4-yl)cyclobutyl)amino)-2-oxoacetyl)-N-(3-(difluoromethyl)-4-fluorophenyl)-2,3-dihydro-1H-pyrrolizine-7-carboxamide], the EC50 in the data set with HBV (setting [1]) amounted to 0.003 µM.

Regarding `O=C(NC1(c2c[nH]nn2)CC1)C(=O)c1c(Cl)c(C(=O)Nc2ccc(F)c(F)c2)c2n1CCC2` [Example 53, 5-(2-((1-(1H-1,2,3-triazol-4-yl)cyclopropyl)amino)-2-oxoacetyl)-6-chloro-N-(3,4-difluorophenyl)-2,3-dihydro-1H-pyrrolizine-7-carboxamide], the half-maximal effective concentration (EC50) in the data set with HBV (setting [1]) was found to be 0.0069 µM.
